The values below are quoted from earlier work in patent US5603954A (priority 1995, dated 1997).

Data set [1] concerns patients with chronic peripheral arterial disease.
The conditions of data set [2]: metabolites appear after dosing in the plasma.

Consider `CC(=O)CCCCn1c(=O)c2c(ncn2C)n(C)c1=O` [pentoxifylline, 3,7-dihydro-3,7-dimethyl-1-(5-oxohexyl)-1H-purine-2,6-dione], for which, in data set [1], the “blood flow to the affected microcirculation” value is on record as “increases the blood flow” and the tissue oxygenation result is listed as “enhances tissue oxygenation”. For the same compound, the first-pass effect entry in data set [2] is given as “undergoes a first-pass effect”.
